Consider 7 substances from paper PMC3177827 (PLoS ONE, 2011).

Entries after “also recorded” stand apart in the source; their conditions may differ. The star is where a group is joined. pNA = O=[N+]([O-])c1ccc(N*)cc1; Cbz = O=C(OCc1ccccc1)*

One series is described as follows: mammalian enzymes. As to conditions: cited from earlier work.
In a further series the test system is pepsin. The series is described as follows: pepsin (1 µg/ml in 0.1 M HCl, pH 1.0). The note with it: up to 24 h.
For the next series, the system named is trypsin. As to the kind of experiment: trypsin (1 µg/ml in 50 mM ammonium bicarbonate, pH 8.0). The note with it: up to 24 h.
Series [1] in a line: strain WSA-8 (R. aeria) in saliva ion buffer (OD620 1.2, pH 7.0). As to conditions: Rothia aeria, up to 5 h.
For a further series, the system named is chymotrypsin. As to the kind of experiment: chymotrypsin (1 µg/ml in 50 mM ammonium bicarbonate, pH 8.0). The note with it: up to 24 h.
Series [2] is described as follows: mixed human dental plaque bacteria. The note with it: cited from earlier work.
A short description of series [3]: bacterial suspension in saliva ion buffer (OD620 1.2). The note with it: up to 24 h.
Series [4] can be described thus: Whole plaque (Mixture of bacteria) suspension in saliva ion buffer. The note with it: human, up to 24 h.
Series [5] in a line: WSA-8 (Rothia aeria HOT-188) bacterial suspension in saliva ion buffer. As to conditions: up to 24 h.
Series [6] is described as follows: WSA-26 (Rothia mucilaginosa HOT-681) bacterial suspension in saliva ion buffer. As to conditions: up to 24 h.
Series [7] is described as follows: WSA-2B (Rothia mucilaginosa HOT-681) bacterial suspension in saliva ion buffer. The note with it: up to 24 h.
The nature of series [8]: WSA-7A (Streptococcus mitis HOT-677) bacterial suspension in saliva ion buffer. The note with it: up to 24 h.
Series [9] is described as follows: WSAN-25 (Veilonella atypica HOT-524) bacterial suspension in saliva ion buffer. The note with it: up to 24 h.
Series [10] in a line: PAN-5 (Bifidobacterium dentium HOT-588) bacterial suspension in saliva ion buffer. As to conditions: up to 24 h.
Series [11] can be described thus: PAN-8 (Bifidobacterium dentium HOT-588) bacterial suspension in saliva ion buffer. As to conditions: up to 24 h.
The nature of series [12]: PAN-0 (Streptococcus pneumoniae HOT-734) bacterial suspension in saliva ion buffer. As to conditions: up to 24 h.
Series [13] in a line: PAN-18 (Bifidobacterium dentium HOT-588) bacterial suspension in saliva ion buffer. The note with it: up to 24 h.
Series [14] can be described thus: PAN-19 (Bifidobacterium dentium HOT-588) bacterial suspension in saliva ion buffer. The note with it: up to 24 h.
Series [15] can be described thus: PAN-23 (Bifidobacterium dentium HOT-588) bacterial suspension in saliva ion buffer. As to conditions: up to 24 h.
Series [16] is described as follows: WSAN-14 (Bifidobacterium longum HOT-B54) bacterial suspension in saliva ion buffer. As to conditions: up to 24 h.
Series [17] is described as follows: WSAN-16 (Bifidobacterium longum HOT-B54) bacterial suspension in saliva ion buffer. As to conditions: up to 24 h.
Series [18] can be described thus: WSAN-24 (Bifidobacterium longum HOT-B54) bacterial suspension in saliva ion buffer. As to conditions: up to 24 h.
The nature of series [19]: WSA-10 (Staphylococcus epidermidis HOT-601) bacterial suspension in saliva ion buffer. As to conditions: up to 24 h.
Setting [20] is: Bifidobacterium dentium HOT-588 (strain PAN-5).
The mark [21] stands for this setting: Bifidobacterium dentium HOT-588 (strain PAN-8).
The mark [22] stands for this setting: Bifidobacterium dentium HOT-588 (strain PAN-18).
Where [23] appears, read: Bifidobacterium dentium HOT-588 (strain PAN-19).
The mark [24] stands for this setting: Bifidobacterium dentium HOT-588 (strain PAN-23).
Setting [25] is: Bifidobacterium longum HOT-B54 (strain WSAN-14).
Setting [26] is: Bifidobacterium longum HOT-B54 (strain WSAN-16).
The mark [27] stands for this setting: Bifidobacterium longum HOT-B54 (strain WSAN-24).
The mark [28] stands for this setting: Rothia aeria HOT-188 (strain WSA-8).
Where [29] appears, read: Rothia mucilaginosa HOT-681 (strain WSA-2B).
The mark [30] stands for this setting: Rothia mucilaginosa HOT-681 (strain WSA-26).
[31] abbreviates: Staphylococcus epidermidis HOT-601 (strain WSA-10).
Setting [32] is: Streptococcus mitis HOT-677 (strain WSA-7A).
The mark [33] stands for this setting: Streptococcus pneumoniae HOT-734 (strain PAN-0).
[34] abbreviates: Veilonella atypica HOT-524 (strain WSAN-25).

FLQPQQPFPQQPQQPYPQQPQQPFPQ: the not cleaved result in “mammalian enzymes” is “resistant to degradation by mammalian enzymes”; with pepsin it was “resistant to degradation; sampled at t = 24 h”; with trypsin it was “resistant to degradation; sampled at t = 24 h”; in the series on chymotrypsin, “resistant to degradation; sampled at t = 24 h”. In addition, the cleaved bond result in series [1] is recorded as “Y-P, major”.
Consider LQLQPFPQPQLPYPQPQLPYPQPQLPYPQPQPF, for which the not cleaved entry in the series “mammalian enzymes” is reported as “resistant to degradation by mammalian enzymes”; with pepsin it was “resistant to degradation; sampled at t = 24 h”; in the series with trypsin it was “resistant to degradation; sampled at t = 24 h”; with chymotrypsin, “resistant to degradation; sampled at t = 24 h”. For the same substance, the cleaved bond entry in series [1] is given as “F-P, minor; also recorded: P-Q, minor; also recorded: Q-L, major; also recorded: Y-P, major; also recorded: Q-P, major”.
In the case of Cbz-Pro-Phe-Pro-pNA, the cleaved bond result in series [2] and in series [4] was “P-pNA” throughout. The not cleaved entry in [3] (setting [20]), in series [3] (setting [21]), in series [3] (setting [22]), in series [3] (setting [23]), in series [3] (setting [24]) and in series [3] (setting [25]) was “− after 24 h” throughout. For the same substance, the not cleaved entry is “− after 24 h” in series [3] (setting [26]); “− after 24 h” in series [3] (setting [27]); “− (not cleaved) after 24 h” in series [3] (setting [28]); “− (not cleaved) after 24 h” in series [3] (setting [29]); “− (not cleaved) after 24 h” in [3] (setting [30]); “− after 24 h” in series [3] (setting [31]). Besides, the not cleaved result was “− after 24 h” in series [3] (setting [32]); “− after 24 h” in series [3] (setting [33]); “− after 24 h” in series [3] (setting [34]); “− after 24 h incubation” in [5]; “− after 24 h incubation” in series [6]; “− after 24 h incubation” in [7]. In addition, the not cleaved entry in [8], in series [9], in series [10], in series [11], in series [12] and in series [13] was “− after 24 h incubation” each time. Besides, the not cleaved result in series [14], in series [15], in series [16], in series [17], in series [18] and in series [19] was “− after 24 h incubation” each time.
In the case of Cbz-Gln-Gln-Pro-pNA, the cleaved bond entry in series [2] and in [4] was “P-pNA” throughout. In addition, the not cleaved entry in [3] (setting [20]), in [3] (setting [21]), in series [3] (setting [22]), in series [3] (setting [23]), in series [3] (setting [24]) and in series [3] (setting [25]) was “− after 24 h” each time. Besides, the not cleaved result is “− after 24 h” in [3] (setting [26]); “− after 24 h” in series [3] (setting [27]); “− (not cleaved) after 24 h” in series [3] (setting [28]); “− (not cleaved) after 24 h” in series [3] (setting [29]); “− (not cleaved) after 24 h” in series [3] (setting [30]); “− after 24 h” in [3] (setting [31]). The not cleaved result in series [3] (setting [32]) was “− after 24 h”; in series [3] (setting [33]), “− after 24 h”; in series [3] (setting [34]) it was “− after 24 h”; in series [5], “− after 24 h incubation”; in series [6], “− after 24 h incubation”; in series [7] it was “− after 24 h incubation”. Moreover, the not cleaved entry in series [8], in series [9], in [10], in series [11], in [12] and in series [13] was “− after 24 h incubation” in each case. Also, the not cleaved result in series [14], in series [15], in [16], in series [17], in [18] and in [19] was “− after 24 h incubation” each time.
Consider Cbz-Lys-Pro-Gln-pNA, for which the cleaved bond result in series [5] and in series [7] was “Q-pNA” each time.
Cbz-Pro-Pro-Phe-pNA: the cleaved bond entry in series [2] and in [4] was “F-pNA” in each case. Also, the not cleaved entry in [3] (setting [20]), in [3] (setting [21]), in series [3] (setting [22]), in series [3] (setting [23]), in series [3] (setting [24]) and in series [3] (setting [25]) was “− after 24 h” each time. In addition, the not cleaved entry in series [3] (setting [26]) is “− after 24 h”; in series [3] (setting [27]), “− after 24 h”; in series [3] (setting [28]), “− (not cleaved) after 24 h”; in series [3] (setting [29]), “− (not cleaved) after 24 h”; in [3] (setting [30]), “− (not cleaved) after 24 h”; in series [3] (setting [31]), “− after 24 h”. The not cleaved entry is reported as “− after 24 h” in series [3] (setting [32]); “− after 24 h” in series [3] (setting [33]); “− after 24 h” in series [3] (setting [34]); “− after 24 h incubation” in series [5]; “− after 24 h incubation” in series [6]; “− after 24 h incubation” in series [7]. Also, the not cleaved result in series [8], in [9], in series [10], in series [11], in series [12] and in series [13] was “− after 24 h incubation” each time. The not cleaved result in [14], in series [15], in series [16], in series [17], in [18] and in series [19] was “− after 24 h incubation” in each case.
As to benzyloxycarbonyl-YPQ-paranitroanilide, the cleaved bond result in [2], in series [4], in series [5], in series [6], in series [7] and in series [8] was “Q-pNA” throughout.
